Test results published in PMC8618356, “Optimization, Characterization and Pharmacokinetic Study of Meso-Tetraphenylporphyrin Metal Complex-Loaded PLGA Nanoparticles” (International Journal of Molecular Sciences, 2021).
Where two headings read alike, the source gives them in different places.

Assays:
[1] = rat, in vivo, iv
Method: The MeP and MeP-NPs were administered via the lateral tail vein at tahe dose of 12.5 (NiTPP, CoTPP, and corresponding NPs at the equivalent dose) and 6.3 mg/kg (MnClTPP and MnClTPP-NPs at the equivalent dose).
Female Wistar rats (body weight 220–240 g) were supplied by Stolbovaya animal facility (Branch of the Scientific Center of Biomedical Technologies of the Federal Medical Biological Agency (Moscow, Russia)). The animals were kept under controlled conditions (temperature of 22 ± 2 °C and relative humidity of 50 ± 10%) with free access to water and standard pellet feed.
The MeP and MeP-NPs pharmacokinetics study was accomplished using randomly divided rat groups (n = 3). Blood samples (50 μL) were collected before injection and after at different time points: 0.25, 0.50, 1.0, 3.0, 6.0, 24.0, and 48.0 h. The blood samples were diluted to 1.0 mL and analyzed with ICP-MS (Agilent 7500C, Agilent Technologies, Tokyo, Japan) [112]. The sample introduction system consisted of a robust Babington nebulizer with a Scott spray chamber (Agilent Technologies, Tokyo, Japan) cooled by a Peltier element (2 °C). The data were acquired and processed with the ICP-MS ChemStation (Agilent Technologies, version G1834B; Santa Clara, CA, USA) software package. The internal standard method was applied in order to take into account the effect of the matrix; Rh was used as internal standard. For dilution of the whole blood samples and standard solution, the mixture of 0.1% Triton X-100–1% HNO3 was used. The same solution was used as the mobile phase of the mass spectrometer.
The pharmacokinetic parameters of MeP were estimated using standard non-compartmental methods [113]. The volume of distribution (Vd), mean residence time (MRT), elimination half-life (t1/2), and area under the plasma concentration–time curve from 0 h to infinity (AUCinf) were determined after intravenous administration of MeP-loaded NPs to animals. All calculations were performed using the PKSolver add-in program for Microsoft Excel [114].

[2] = MeP loading content and encapsulation efficiency of PLGA NPs (spectrophotometry); type: physicochemical; conditions: optimized MeP-loaded PLGA NPs; for MeP loading content (LC): observed data
Method: EE and LC calculation is a critical stage in NP analysis, evaluating the MeP amount in NPs’ core. The EE of MeP was determined by dissolving 4 mg of NPs in 4 mL of distilled water followed by centrifugation at 5000× g for 3 min and subsequent lyophilization. The optical density of the sediment and supernatant was assessed at 465 nm for MnClTPP, 433 nm for NiTPP, and 428 nm for CoTPP. The entrapment efficiency of MeP (EE) was calculated according to Equation (9):(9) EE (%)=The mass of MeP in the nanoparticles, mg/The mass of the nanoparticles weight, mg ∗100%
MeP LC corresponded to the optical density of 4 mg of lyophilized NPs in 4 mL of DMSO. Subsequent absorption analysis was performed as indicated earlier and LC calculated according to the following Equation (10): (10) LC (%) = Absorbance∗VDMSO/ε∗msample∗100% where VDMSO is the total volume of suspension containing NPs (L), ε is the extinction coefficient of MeP in DMSO (ε = 116,280 M^−1 cm^−1 for MnClTPP, ε = 36,797 M^−1 cm^−1 for NiTPP, ε = 87,448 M^−1 cm^−1 for CoTPP), and msample is the NPs mass (g).

BALB/c female mice = assay: Acute toxicity analysis; type: in vivo; conditions: i.v. tail vein, 24 h
Method: All experimental procedures with animals (mice and rats) were performed according to the University Ethics Committee for the use of experimental animals and animal studies were carried out as per the guidelines of the European Medicines Agency, Amsterdam, the Netherlands.
MeP and MeP-NP acute toxicity analysis was accomplished using randomly divided mice groups (n = 3). The samples were diluted in PBS and injected (200 μL) via the lateral tail vein. Due to poor water solubility, MePs were preliminarily dissolved in DMSO and Tween 80: the final solution represented 5% v/v DMSO and 2% Tween 80 v/v in PBS. Survival was registered for 24 h after injection.

[3] = In vitro release study of MeP-loaded NPs in PBS pH 7.4 with 0.1% Tween 80; type: physicochemical; conditions: for release rate constant kк (Korsmeyer–Peppas model) / release exponent n (Korsmeyer–Peppas model): MeP release from MeP-loaded PLGA NPs; for release rate constant kк (Korsmeyer–Peppas model): PBS pH 7.4, 0.1% Tween 80, 37 °C; for release exponent n (Korsmeyer–Peppas model): less than 0.43 = Fickian diffusion; for duration of the fast (rapid) release phase: biphasic release from MeP-loaded NPs
Description: We analyzed the release according to the method of Abouelmag et al. using a phosphate-buffered saline (PBS) pH 7.4 containing 0.1% Tween 80 (Figure 8) as a release medium.
We determined the MeP release mechanisms by fitting the data obtained by applying several release kinetic models (Table 7). […] The release exponent values were n = 0.01 for NiTPP, n = 0.06 for CoTPP, and n = 0.11 for MnClTPP, and less than 0.43, indicating Fickian diffusion of MeP [92].
The time-dependent release of MeP was analyzed by dissolving 3 mg of NPs in 1 mL of PBS (0.01 M, pH 7.4) and incubation in a dark glass bottle containing 40 mL of PBS (0.01 M, pH 7.4) and 0.1% (w/v) Tween 80 solution. The probes were kept on a shaker incubator at 90 rpm and 37 °C. Aliquots of 1 mL of media were taken at 0, 0.25, 0.5, 0.75, 1, 1.5, 2, 3, 4, 24, 48, 72, 120, 144, and 192 h and replenished with 1 mL of fresh PBS. The collected aliquots were centrifuged for 3 min at 5000× g at 37 °C. The supernatants were removed and lyophilized as well as the sediments. The amount of MeP released at each time point was calculated as described above according to optical absorption.

[4] = as above; type: physicochemical; conditions: after 180 h
[5] = system: HeLa, MCF-7, and SK-OV-3 cells; assay: Cytotoxicity, MTT assay; type: cell-based, human; conditions: all examined cell lines, 72 h
Method: The cancer cell lines HeLa (human cervical carcinoma), MCF-7 (human breast adenocarcinoma), and SK-OV-3 (human ovarian carcinoma) were purchased from the American Type Culture Collection (ATCC, Manassas, VA, USA). Cells were maintained in DMEM medium supplemented with 10% fetal bovine serum and gentamycin (50 μg/mL). Cells were maintained in plastic 25 cm^2 cell culture flasks at 37 °C in a humidified atmosphere containing 5% CO2. HeLa, MCF-7, and SK-OV-3 cells were plated before reaching 80% confluence using trypsin/EDTA solution.
MCF-7, SK-OV-3, and HeLa cells were plated in 96-well plates (5000 cells per well) one day before the experiment and incubated under standard conditions. MeP and MeP-NPs were added in triplets in the concentration range 0.125–100 μM (according to the MeP concentration) and incubated for 2 h. To determine cytotoxicity, cells were treated with AA alone or in combination with MeP in a molar ratio of 1:20 to MeP and then incubated for 72 h. Cell survival was determined using the standard MTT assay. Cell viability was determined as the percent of untreated control. Mean survival values were calculated in Excel (Microsoft Corporation, Redmond, Washington, DC, USA)) and data visualization was performed in OriginPro (version 2020b, OriginLab Corp., Northampton, MA, USA).

Row | Structure (SMILES) | AUCinf ([1]; 12.5 mg/kg) | MRT ([1]; 12.5 mg/kg) [h] | Vd ([1]; 12.5 mg/kg) [L/kg] | t1/2 ([1]; 12.5 mg/kg) [h] | encapsulation efficiency (EE) [2] [%] | MeP loading content (LC) [2] [%] | Mice Survived (BALB/c female mice; 6.25 mg/kg) | Mice Survived (BALB/c female mice; 12.5 mg/kg) | Mice Survived (BALB/c female mice; 25 mg/kg) | Mice Survived (BALB/c female mice; 50 mg/kg) | release rate constant kк (Korsmeyer–Peppas model) [3] [h⁻¹] | release exponent n (Korsmeyer–Peppas model) [3] | duration of the fast (rapid) release phase [3] [min] | MeP released from NPs [4] [%] | AUCinf ([1]; 6.3 mg/kg) | MRT ([1]; 6.3 mg/kg) [h] | Vd ([1]; 6.3 mg/kg) [L/kg] | t1/2 ([1]; 6.3 mg/kg) [h] | cytotoxicity alone, without combination (in words) [5]
1 | C1=Cc2nc1c(-c1ccccc1)c1ccc([n-]1)c(-c1ccccc1)c1nc(c(-c3ccccc3)c3ccc([n-]3)c2-c2ccccc2)C=C1.[Co+2] [CoTPP] | 60,370 ± 18,111 (µg/mL) (h) | 27 ± 7 | 0.003 ± 0.001 | 17 ± 4 | 79.7 | 8.7 | 3/3 | 3/3 | 2/3 | 0/3 | 74.3 | 0.06 | 30 | – | – | – | – | – | –
2 | C1=Cc2nc1c(-c1ccccc1)c1ccc([n-]1)c(-c1ccccc1)c1nc(c(-c3ccccc3)c3ccc([n-]3)c2-c2ccccc2)C=C1.[Cl-].[Mn+3] [MnClTPP, MnCl3-tetraphenylporphyrin chloride] | – | – | – | – | 79.9 | 28.9 | 3/3 | 3/3 | 3/3 | 2/3 | 49.4 | 0.11 | 15 | 80 | 15,362 ± 5377 (µg/mL) (h) | 62 ± 21 | 0.013 ± 0.004 | 44 ± 14 | –
3 | O=C1O[C@H]([C@@H](O)CO)C(O)=C1O [AA, ascorbic acid] | – | – | – | – | – | – | – | – | – | – | – | – | – | – | – | – | – | – | lacked cell growth inhibition
4 | C1=Cc2nc1c(-c1ccccc1)c1ccc([n-]1)c(-c1ccccc1)c1nc(c(-c3ccccc3)c3ccc([n-]3)c2-c2ccccc2)C=C1.[Ni+2] [NiTPP] | 612 ± 184 (µg/mL) (h) | 25 ± 6 | 2.683 ± 0.805 | 19 ± 6 | – | 11.1 | 3/3 | 3/3 | 1/3 | 0/3 | 91.3 | 0.01 | 30 | – | – | – | – | – | –
